Drawing on patent publication US10189854B2, “Substituted pyrimidine compounds” (Grünenthal GmbH, priority 2014, dated 2019), this text covers IC50 for 31 compounds.

Chain of human PDE4B1 (Q07343 whole entry): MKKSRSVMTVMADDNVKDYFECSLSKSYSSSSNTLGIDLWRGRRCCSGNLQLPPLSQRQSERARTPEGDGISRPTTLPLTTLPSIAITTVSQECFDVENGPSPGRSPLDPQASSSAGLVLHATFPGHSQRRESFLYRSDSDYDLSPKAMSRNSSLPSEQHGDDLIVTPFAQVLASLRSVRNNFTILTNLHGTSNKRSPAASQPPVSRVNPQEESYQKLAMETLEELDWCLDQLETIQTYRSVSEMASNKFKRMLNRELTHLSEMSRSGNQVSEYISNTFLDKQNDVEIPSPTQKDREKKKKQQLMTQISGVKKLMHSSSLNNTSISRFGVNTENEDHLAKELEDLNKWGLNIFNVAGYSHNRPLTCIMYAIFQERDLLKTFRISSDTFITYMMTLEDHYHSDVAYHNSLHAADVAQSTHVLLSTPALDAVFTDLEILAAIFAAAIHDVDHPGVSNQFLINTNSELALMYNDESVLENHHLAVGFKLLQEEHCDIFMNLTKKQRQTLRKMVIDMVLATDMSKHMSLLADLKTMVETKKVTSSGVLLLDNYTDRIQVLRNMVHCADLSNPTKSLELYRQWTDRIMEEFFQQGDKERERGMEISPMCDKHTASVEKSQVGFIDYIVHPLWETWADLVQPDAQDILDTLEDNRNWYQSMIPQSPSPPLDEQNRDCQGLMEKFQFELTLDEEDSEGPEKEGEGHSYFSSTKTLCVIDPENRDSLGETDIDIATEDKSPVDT

This assay deals with human PDE4B1 (Homo sapiens (Human), UniProt Q07343). Put plainly: cAMP HTRF assay to determine the activity of hPDE4B1. As to conditions: IC50 inhibition of PDE4B; human recombinant PDE4B1, cAMP HTRF assay. The assay is classed as biochemical. In a few lines:
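Recombinant human PDE4B1 expressed in Sf9 cells (4.8 U) was incubated with 40 nM cAMP for 30 min at room temperature in Tris buffer, pH 7.8, with MgCl2, DTT and Tween 20. HTRF detection of remaining cAMP followed, with 1 mM IBMX stop, read 60 min later as the 665/620 nm ratio. Results are % inhibition versus control.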
As to `O=C1CN(C(=O)c2ccc3c(c2)N(c2ncc(-c4ccccn4)cn2)CC32CC2)CCN1` [Compound 180, 4-[1-(5-Pyridin-2-yl-pyrimidin-2-yl)-spiro[1,2-dihydro-indole-3,1′-cyclopropane]-6-carobnyl]-piperazin-2-one], the concentration for half-maximal inhibition (IC50) is < 0.1 µM.

As for `COc1ccnc(-c2cnc(N3CC4(CC4)c4ccc(C(=O)N5CCOCC5)cc43)nc2)c1` [Compound 182, [1-[5-(4-Methoxy-pyridin-2-yl)-pyrimidin-2-yl]-spiro[1,2-dihdyro-indole-3,1′-cyclopropane]-6-yl]-morpholin-4-yl-methanone], the IC50 is < 0.1 µM.

In the case of `Cc1ccnc(-c2cnc(N3CC4(CC4)c4ccc(C(=O)N5CCOCC5)cc43)nc2)c1` [Compound 192, [1-[5-(4-Methyl-pyridin-2-yl)-pyrimidin-2-yl]-spiro[1,2-dihydro-indole-3,1′-cyclopropane]-6-yl]-morpholin-4-yl-methanone], the IC50 was < 0.1 µM.

For the compound `CN(CCO)C(=O)c1ccc2c(c1)N(c1ncc(-c3cnn(C)c3)cn1)CC21CC1` [Compound 199, N-(2-Hydorxy-ethyl)-N-methyl-1-[5-(1-methyl-1H-pyrazol-4-yl)-pyrimidin-2-yl]-spiro[1,2-dihydro-indole-3,1′-cyclopropane]-6-carboxylic acid amide], the IC50 was < 0.1 µM.

Turning to `CC(C)(O)c1ccc(-c2cnc(N3CC4(CC4)c4ccc(C(=O)N5CCOCC5)cc43)nc2)s1` [Compound 207, [1-[5-[5-(1-Hydroxy-1-methyl-ethyl)-thiophen-2-yl]-pyrimidin-2-yl]-spiro[1,2-dihydro-indole-3,1′-cyclopropane]-6-yl]-morpholin4--yl-methanone], the half-inhibitory concentration (IC50) was < 0.1 µM.

Regarding `CN(C)c1ccnc(-c2cnc(N3CC4(CC4)c4ccc(C(=O)N5CCOCC5)cc43)nc2)c1` [Compound 208, [1-[5-(4-Dimethylamino-pyridin-2-yl)-pyrimidin-2-yl]-spiro[1,2-dihydro-indole-3,1′-cyclopropane]-6-yl]-morpholin-4-yl-methanone], the 50% inhibitory concentration (IC50) was < 0.1 µM.

`Cc1ccnc(-c2cnc(N3CC4(CC4)c4ccc(C(=O)N(C)CCO)cc43)nc2)c1` [Compound 210, N-(2-Hydroxy-ethyl)-N-methyl-1-[5-(4-methyl-pyridin-2-yl)-pyrimidin-2-yl]-spiro[1,2-dihydro-indole-3,1′-cyclopropane]-6-carboxylic acid amide]: the 50% inhibitory concentration (IC50) was < 0.1 µM.

As for `COc1cccc(-c2cnc(N3CC4(CC4)c4ccc(C(=O)N(C)CCO)cc43)nc2)n1` [Compound 211, N-(2-Hydroxy-ethyl)-1-[5-(6-methoxy-pyridin-2-yl)-pyrimidin-2-yl]-N-methyl-spiro[1,2-dihydro-indole-3,1′-cyclopropane]-6-carboxylic acid amide], the IC50 is < 0.1 µM.

On to `COc1cccc(-c2cnc(N3CC4(CC4)c4ccc(C(=O)N5CC6CC5CN6)cc43)nc2)c1` (stereo not shown) [Compound 212, (2,5-Diazabicyclo[2.2.1]heptan-2-yl)-[1-[5-(3-methoxyphenyl)-pyrimidin-2-yl]-spiro[1,2-dihydro-indole-3,1′-cyclopropane]-6-yl]-methanone; 2,2,2-trifluoro-acetic acid], for which the IC50 was < 0.1 µM.

Regarding `Cc1cc(-c2cnc(N3CC4(CC4)c4ccc(C(=O)N(C)CCO)cc43)nc2)ccn1` [Compound 214, N-(2-Hydroxy-ethyl)-N-methyl-1-[5-(2-methyl-pyridin-4-yl)-pyrimidin-2-yl]-spiro[1,2-dihydro-indole-3,1′-cyclopropane]-6-carboxylic acid amide], the IC50 is < 0.1 µM.

With `O=C(O)C1CCN(C(=O)c2ccc3c(c2)N(c2ncc(-c4ccccc4F)cn2)CC32CC2)CC1` [Compound 215, 1-[1-[5-(2-Fluorophenyl)-pyrimidin-2-yl]-spiro[1,2-dihydro-indole-3,1′-cyclopropane]-6-carbonyl]-piperidine-4-carboxylic acid], the 50% inhibitory concentration (IC50) fell in the range of 1 to 10 µM.

On to `NC(=O)C1CCN(C(=O)c2ccc3c(c2)N(c2ncc(-c4ccccc4F)cn2)CC32CC2)CC1` [Compound 216, 1-[1-[5-(2-Fluorophenyl)-pyrimidin-2-yl]-spiro[1,2-dihydro-indole-3,1′-cyclopropane]-6-carbonyl]-piperidine-4-carboxylic acid amide], for which the IC50 is 1 to 10 µM.

Regarding `COCC1CCN(C(=O)c2ccc3c(c2)N(c2ncc(-c4ccccc4F)cn2)CC32CC2)CC1` [Compound 217, [1-[5-(2-Fluorophenyl)-pyrimidin-2-yl]-spiro[1,2-dihydro-indole-3,1′-cyclopropane]-6-yl]-[4-(methoxymethyl)-piperidin-1-yl]-methanone], the IC50 is 1 to 10 µM.

Turning to `O=C(c1ccc2c(c1)N(c1ncc(-c3ccccc3F)cn1)CC21CC1)N1CC2CC1CN2CCO` (stereo not shown) [Compound 218, [1-[5-(2-Fluorophenyl)-pyrimidin-2-yl]-spiro[1,2-dihydro-indole-3,1′-cyclopropane]-6-yl]-[5-(2-hydroxy-ethyl)-2,5-diazabicyclo[2.2.1]heptan-2-yl]-methanone], the IC50 lay within 0.1 to 1 µM.

With “Morpholin-4-yl-[1-(5-pyridazin-3-yl-pyrimidin-2-yl)-spiro[1,2-di-hydro-indole-3,1′-cyclopropane]-6-yl]-methanone [Compound 191]”, the half-inhibitory concentration (IC50) was < 0.1 µM.

Consider “Morpholin-4-yl-[1-(5-pyridazin-4-yl-pyrimidin-2-yl)-spiro[1,2-dihydro-indole-3,1′-cyclopropane]-6-yl]-methanone [Compound 200]”, for which the half-inhibitory concentration (IC50) is < 0.1 µM.

Turning to “Morpholin-4-yl-[1-(5-pyrimidin-4-yl-pyrimidin-2-yl)-spiro[1,2-di-hydro-indole-3,1′-cyclopropane]-6-yl]-methanone [Compound 190]”, the IC50 is < 0.1 µM.

Regarding “Morpholin-4-yl-[1-[5-[4-(trifluoromethyl)-pyridin-2-yl]-pyrimidin-2-yl]-spiro[1,2-dihydro-indole-3,1′-cyclopropane]-6-yl]-methanone [Compound 195]”, the IC50 is < 0.1 µM.

In the case of “N-(2-Hydroxy-ethyl)-1-[5-(3-methoxyphenyl)-pyrimidin-2-yl]-N-methyl-spiro[1,2-dihydro-indole-3,1′-cyclopropane]-6-carboxylic acid amide [Compound 197]”, the IC50 is < 0.1 µM.

In the case of “N-[(3R)-1-[1-(5-Phenyl-pyrimidin-2-yl)-spiro[1,2-di-hydro-indole-3,1′-cyclopropane]-6-carbonyl]-pyrrolidin-3-yl]-acetamide [Compound 203]”, the IC50 was 1 to 10 µM.

Take “[1-[5-(1-Cyclopropyl-phenyl)-pyrimidin-2-yl]-spiro[1,2-dihydro-indole-3,1′-cyclopropane]-6-yl]-piperazin-1-yl-methanone [Compound 70]”: the half-maximal inhibitory concentration (IC50) is 0.1 to 1 µM.

Turning to “[1-[5-(1-Fluorophenyl)-pyrimidin-2-yl]-spiro[1,2-dihydro-indole-3,1′-cyclopropane]-6-yl]-pyrrolidin-1-yl-methanone [Compound 3]”, the IC50 is < 0.1 µM.

“[1-[5-(2-Fluorophenyl)-pyrimidin-2-yl]-spiro[1,2-dihydro-pyrrolo[2,3-b]pyridine-3,1′-cyclobutane]-6-yl]-morpholin-4-yl-methanone [Compound 171]”: the half-maximal inhibitory concentration (IC50) is 0.1 to 1 µM.

Consider “[1-[5-(2-Methyl-pyrimidin-4-yl)-pyrimidin-2-yl]-spiro[1,2-dihydro-indole-3,1′-cyclopropane]-6-yl]-morpholin-4-yl-methanone [Compound 185]”, for which the IC50 was < 0.1 µM.

In the case of “[1-[5-(4-Amino-pyridin-2-yl)-pyrimidin-2-yl]-spiro[1,2-dihydro-indole-3,1′-cyclopropane]-6-yl]-morpholin-4-yl-methanone [Compound 181]”, the IC50 is < 0.1 µM.

In the case of “[1-[5-(4-Fluoro-pyridin-2-yl)-pyrimidin-2-yl]-spiro[1,2-dihydro-indole-3,1′-cyclopropane]-6-yl]-morpholin-4-yl-methanone [Compound 187]”, the concentration for half-maximal inhibition (IC50) was < 0.1 µM.

For the compound “[1-[5-(6-Chloro-pyrimidin-4-yl)-pyrimidin-2-yl]-spiro[1,2-dihydro-indole-3,1′-cyclopropane]-6-yl]-morpholin-4-yl-methanone [Compound 206]”, the half-inhibitory concentration (IC50) is < 0.1 µM.

As to “[1-[5-(6-Fluoro-pyrimidin-4-yl)-pyrimidin-2-yl]-spiro[1,2-dihydro-indole-3,1′-cyclopropane]-6-yl]-morpholin-4-yl-methanone [Compound 205]”, the concentration for half-maximal inhibition (IC50) was < 0.1 µM.

As to “[1-[5-(6-Methoxy-pyridazin-3-yl)-pyrimidin-2-yl]-spiro[1,2-dihydro-indole-3,1′-cyclopropane]-6-yl]-morpholin-4-yl-methanone [Compound 201]”, the concentration for half-maximal inhibition (IC50) was < 0.1 µM.

Turning to “[1-[5-(6-Methyl-pyridazin-3-yl)-pyrimidin-2-yl]-spiro[1,2-dihydro-indole-3,1′-cyclopropane]-6-yl]-morpholin-4-yl-methanone [Compound 196]”, the IC50 was < 0.1 µM.

On to “[1-[5-(6-Methyl-pyridin-2-yl)-pyrimidin-2-yl]-spiro[1,2-dihydro-indole-3,1′-cyclopropane]-6-yl]-morpholin-4-yl-methanone [Compound 186]”, for which the IC50 is < 0.1 µM.
